Patent US9351983B2, “Use of glycerophosphoinositols for the treatment of septic shock” (CONSIGLIO NAZIONALE DELLE RICERCHE, priority 2012, dated 2016)

Tests used:
p38 = assay: Western blotting of phosphorylated p38 in LPS-stimulated monocytes; assay type: cell-based, human; details: 300 μM, 0.1 μg/ml LPS for 1 h
Experimental: Monocytes from healthy donors were incubated at 37° C. for 20 min without or with 300 μM GroPIns or GroPIns4P, and for an additional 1 h in the absence and presence of 0.1 μg/ml LPS from E. coli. Resentative Western blots are shown, as resolved using 10% SDS-PAGE, showing phosphorylated (p-) and total levels of p38 and ERK1/2. All of the blots were representative of at least three independent experiments.
Protein extracts were analysed by Western blotting by the following procedures. The nitrocellulose filters containing the proteins of interest were incubated in the blocking solution for Western blotting plus 3% bovine serum albumin (BSA) or 5% milk powder (Fluka, Switzerland) for 1 h at room temperature, and then with the primary antibody diluted to its working concentration (see Table 2) in the blocking solution for Western blotting (plus BSA or milk powder). After a 2-4 h incubation at room temperature, or an overnight (O/N) incubation at 4° C., the antibody was removed and the strips were washed twice in Tween®/Tris-buffered salt solution (TTBS), for 15 min each. […] After washing the strips were incubated with the enhanced luminescence (ECL) reagents (Amersham Pharmacia Biotech, NJ, USA), according to the manufacturer instructions, and protein signals were detect by autoradiography using Kodak film.

[1] = system: LPS-activated tissue-factor (TF) activity in human monocytes; assay: Pro-coagulant activity of tissue factor (one-stage clotting time) in LPS-stimulated human monocytes; assay type: cell-based; details: for time at which inhibition of LPS-mediated TF activity is evident: 0.1 μg/ml LPS, 5 h versus 24 h (FIG. 2); for tissue-factor activity (pro-coagulant activity, one-stage clotting time): 50 μM to 300 μM, then 0.1 μg/ml LPS for 5 h and 24 h (FIG. 2)
Experimental: FIG. 2—The glycerophosphoinositols inhibit LPS-activated tissue-factor activity in human monocytes. Human monocytes were purified from peripheral blood of healthy donors and incubated at 37° C. for 20 min without or with different concentrations (from 50 μM to 300 μM) GroPIns or GroPIns4P, and for a further 5 h and 24 h in the absence and in presence of 0.1 μg/ml LPS from E. coli. […] Data are means (±SD) of three independent experiments performed with cells from different donors. Asterisks indicate statistically significant differences (*p=0.015; **p<0.005; ***p=0.0003) versus their respective controls. As shown, pro-coagulant activity was not detectable in untreated monocytes, and it was induced in a time-dependent manner by LPS stimulation.
The glycerophosphoinositol, differently from the PLA2IVα inhibitor, inhibits LPS-activated tissue-factor activity in human monocytes. Human monocytes were purified from peripheral blood of two healthy donors (experiment I and II) and pre-incubated at 37° C. for 20 min without (black line) or with 300 μM glycerophosphoinositol (GroPIns, blue line) or 0.5 μM PLA2IVα inhibitor (pyrrophenone, Pf, red line), and for a further 24 h in the absence or presence of increasing concentrations of LPS from E. coli (endotoxin).
The glycerophosphoinositol inhibits in a dose-dependent manner LPS-activated tissue-factor activity in human monocytes. Human monocytes were purified from peripheral blood of three healthy donors (experiments III, IV and V) and pre-incubated at 37° C. for 20 min without or with increasing concentrations of glycerophosphoinositol (GroPIns) and for a further 24 h in the absence or presence of 10 ng/ml of LPS from E. coli (endotoxin). […] The two insets in Exp IV and V show the pro-coagulant activity of tissue factor, assessed in cells stimulated by 10 ng/ml of endotoxin, with (filled bars) or without (dotted bars) 20 min pre-incubation at 37° C., in absence (Control) or in presence of 300 μM GroPIns.
The glycerophosphoinositols inhibit LPS-activated tissue-factor activity in human monocytes.
Human monocytes were obtained from whole blood collected from healthy donors (informed consent was obtained) and anticoagulated with 0.1 vol 3.8% sodium citrate/0.15 mol/l NaCl. The leukocytes were sedimented at 180×g for 15 min at 10° C. The sedimented cells were diluted to the initial volume with citrate-saline and sedimented again. This step was repeated to minimise platelet contamination. The cells were then layered onto Lymphoprep™, and centrifuged at 700×g for 20 min at 20° C. The ring of mononuclear cells was collected and sedimented at 620×g for 7 min at 8° C. The pellet was resuspended in citrate-saline and the cells were washed twice. Monocytes were purified using a discontinuous Percoll™ density gradient; the mononuclear cell preparation was resuspended in RPMI-1640 medium supplemented with 10% heat-inactivated foetal calf serum, and was layered onto a 46% isosmotic Percoll™ solution. After centrifugation at 20° C. for 30 min at 550×g, the cells at the RPMI-1640 medium/Percoll™ interface were collected and sedimented at 620×g. The pellet was resuspended in citrate-saline and the cells were washed twice. The final monocyte preparation was then resuspended in serum-free RPMI-1640 at the concentration required.
The pro-coagulant activity of tissue factor (TF activity) was measured in cell lysates according to one-stage clotting time [as reported in (Evangelista et al., Thromb Haemost. 2005; 94, 568-577)]. One hundred μl of cell lysates were added to 100 μl of 37° C. prewarmed normal human plasma. After 30 s, 100 μl 20 mM CaCl2 were added to the mixture and the clotting time was determined using a KC4A Amellung Coagulometer (Mascia Brunelli, Milan, Italy). The data were then converted in arbitrary units by interpolation with a standard curve generated with serial dilutions of human recombinant thromboplastin (Hemoliance, Instrumentation Laboratory).

[2] = 300 μM, endotoxin 10 ng/ml for 24 h (FIG. 12)

SMILES	phosphorylation level of p38 (p38)	time at which inhibition of LPS-mediated TF activity is evident [1]	tissue-factor activity (pro-coagulant activity, one-stage clotting time) ([1]; 20 min pre-incubation)	TF activity [1, 2]	efficacy in reducing TF activity compared with GroPIns [1, 2]	TF activity ([1]; 300 μM, 20 min pre-incubation, increasing concentrations of endotoxin for 24 h (FIG. 10))	TF activity ([1]; increasing concentrations of compound, endotoxin 10 ng/ml for 24 h (FIG. 11))
O=P(O)(O)OC1[C@@H](O)[C@H](O)C(OP(=O)(O)OCC(O)CO)[C@@H](O)[C@H]1O (some centres unmarked) [GroPIns4P, glycerophosphoinositol 4-phosphate]	did not affect the phosphorylation levels	already effective at shorter times (5 h)	dose-dependent reduction in tissue-factor activity	reduce TF activity	higher efficacy than GroPIns	–	–
O=P(O)(OCC(O)CO)OC1C(O)C(O)C(O)C(O)C1O (centres unmarked) [GroPIns, glycerophosphoinositol]	did not affect the phosphorylation levels	mainly evident at long times (24 h)	dose-dependent reduction in tissue-factor activity	reduce TF activity	–	reduces TF activity	dose-dependently reduces TF activity
